# Like-named read-outs stand apart in the source and are kept apart here.
# Biological target: T1, purified human COMT enzyme of the Val158 variant (membrane-bound MB-COMT) (Homo sapiens, UniProt P21964)
# T1 construct: 6xHis or 10xHis (C)
# T1 sequence (P21964 1-271): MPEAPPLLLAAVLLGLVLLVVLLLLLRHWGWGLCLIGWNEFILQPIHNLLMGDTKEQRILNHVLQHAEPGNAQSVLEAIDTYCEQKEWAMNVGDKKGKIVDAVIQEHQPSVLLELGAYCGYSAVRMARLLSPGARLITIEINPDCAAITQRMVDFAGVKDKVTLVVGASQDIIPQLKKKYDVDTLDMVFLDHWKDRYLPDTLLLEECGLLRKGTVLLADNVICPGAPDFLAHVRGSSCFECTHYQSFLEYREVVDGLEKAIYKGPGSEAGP
# Experiment: MB-COMT inhibition, Esculetin or Fluorescence Polarization assay
# Assay type: biochemical
# [1] = Esculetin or Fluorescence Polarization assay, human Val158 variant, read-out: MB-COMT IC50-
IC50 [1] [µM],IC50 [µM],SMILES
0.075,,"Nc1cc(=O)c(O)cn1-c1cccc(-c2ccccc2)c1 [Example 3, 2-Amino-1-(biphenyl-3-yl)-5-hydroxypyridin-4(1H)-one]"
0.1,,"CNc1cc(=O)c(O)cn1-c1cccc(-c2ccccc2)c1 [Example 4, 1-(Biphenyl-3-yl)-5-hydroxy-2-(methylamino)pyridin-4(1H)-one]"
0.087,,"COc1ncc(F)cc1C(O)Cc1cc(=O)c(O)cn1-c1cccc(-c2ccccc2)c1 (centres unmarked) [Example 11, 1-biphenyl-3-yl-2-[2-(5-fluoro-2-methoxypyridin-3-yl)-2-hydroxyethyl]-5-hydroxypyridin-4(1H)-one]"
0.226,,"CC(O)c1cc(=O)c(O)cn1-c1cccc(-c2cncc3ccccc23)c1 (centres unmarked) [Example 14, 5-hydroxy-2-(1-hydroxyethyl)-1-[3-(isoquinolin-4-yl)phenyl]pyridin-4(1H)-one]"
0.07,,"O=c1cc(C(O)C(F)(F)F)n(-c2cccc(-c3cccc4ncccc34)c2)cc1O (centres unmarked) [Example 15, 5-hydroxy-1-[3-(quinolin-5-yl)phenyl]-2-(2,2,2-trifluoro-1-hydroxyethyl)pyridin-4(1H)-one]"

# Second part, the compound before the results:
SMILES,IC50 [1] [µM],IC50 [µM]
"CC(O)c1cc(=O)c(O)cn1-c1cccc(-c2c(Cl)cnc3[nH]ccc23)c1 (single isomer, unassigned) [Example 13, 1-[3-(5-chloro-1H-pyrrolo[2,3-b]pyridin-4-yl)phenyl]-5-hydroxy-2-(1-hydroxyethyl)-pyridin-4(1H)-one]",0.041,
"COc1ccc(-c2nc3cc(-n4ccc(=O)c(O)c4)ccc3[nH]2)cc1 [Example 2, 3-hydroxy-1-[2-(4-methoxyphenyl)-1H-benzimidazol-5-yl]pyridin-4(1H)-one]",,0.064
"O=c1ccn(-c2cccc(-c3cccc4[nH]ncc34)n2)cc1O [Example 8, 3-Hydroxy-6′-(1H-indazol-4-yl)-4H-1,2′-bipyridin-4-one]",0.021,
"O=c1ccn(-c2nccc(-c3c(Cl)cnc4[nH]ccc34)c2F)cc1O [Example 9, 4′-(5-chloro-1H-pyrrolo[2,3-b]pyridin-4-yl)-3′-fluoro-3-hydroxy-4H-1,2′-bipyridin-4-one]",0.008,
"Cc1cc(=O)c(O)cn1-c1cccc2c1ncn2Cc1c(F)cccc1Cl [Example 10, 1-[1-(2-Chloro-6-fluorobenzyl)-1H-benzimidazol-4-yl]-5-hydroxy-2-methylpyridin-4(1H)-one]",0.191,
"O=c1cc(C(O)C#Cc2ccccc2)n(-c2cccc(-c3c(Cl)cnc4[nH]ccc34)c2)cc1O (centres unmarked) [Example 12, 1-[3-(5-chloro-1H-pyrrolo[2,3-b]pyridin-4-yl)phenyl]-5-hydroxy-2-(1-hydroxy-3-phenylprop-2-yn-1-yl)pyridin-4(1H)-one]",0.026,

# Reference: patent US9024032B2, “Inhibitors of catechol O-methyl transferase and their use in the treatment of psychotic disorders” (Merck Sharp & Dohme Corp., priority 2010, dated 2015)
